Source: patent publication US20250084095A1, “Aminopyrimidine Derivatives as Cyclin-Dependent Kinase Inhibitors” (Accutar Biotechnology Inc., priority 2023, published 2025)
Read-outs that look alike come from different tables or passages of the source.

Legend:
[1] = test system: Phospho-Rb (Ser807/811) in MCF7 cells; test: Phospho-Rb expression inhibition in MCF7 cells quantified by in cell Western; assay type: cell-based, human; settings: for IC50: in cell Western
Procedure, shortened: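 MCF7 cells were seeded at 20,000/well, grown overnight, then treated 24 h at 37 °C with compound dilutions (0.1% DMSO from 1000× stocks). Fixed cells were co-stained for phospho-Rb Ser807/811 and total Rb. Near-infrared dual-channel in-cell Western imaging was the read-out.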

22RV1 cells = test: Cell growth inhibition of 22RV1 cells (CellTiter-Glo); assay type: cell-based; settings: for GI50: 5 days, CellTiter-Glo
Procedure, shortened: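 22RV1 cells were plated in RPMI1640 with FBS (20% in one version, 10% in the other) and dosed next day at various concentrations from DMSO stocks. After 5 days at 37 °C, viability was measured by CellTiter-Glo luminescence.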

[2] = Homo sapiens, MCF7, 24 h, 24 hours, read-out: MCF7 pRb IC50
[3] = Homo sapiens, 22Rv1, 120 h, read-out: 22RV1 Cell Growh GI50

Structure (SMILES) | IC50 [1, 2] [nM] | GI50 (22RV1 cells; [3]) [nM] | also measured
Cc1c(CN(C)C)n(C(C)C)c2cc(-c3nc(N[C@@H]4C[C@H]5CO[C@H](O5)[C@H]4O)ncc3F)ccc2c1=O [Compound 195, 2-((dimethylamino)methyl)-7-(5-fluoro-2-(((1S,3R,4S,5R)-4-hydroxy-6,8-dioxabicyclo [3.2.1]octan-3-yl)amino)pyrimidin-4-yl)-1-isopropyl-3-methylquinolin-4(1H)-one] | 40 to 150 | 120 to 450 | 
Cc1c(C(C)(C)O)cnc2c(F)cc(-c3nc(N[C@@H]4C[C@H]5CO[C@H](O5)[C@H]4O)ncc3Cl)cc12 [Compound 257, (1S,3R,4S,5R)-3-((5-chloro-4-(8-fluoro-3-(2-hydroxypropan-2-yl)-4-methylquinolin-6-yl)pyrimidin-2-yl)amino)-6,8-dioxabicyclo[3.2.1]octan-4-ol] | ≤ 40 | ≤ 120 | 
CCn1cc(C(C)C)c2sc(-c3nc(N[C@@H]4C[C@H]5CO[C@H](O5)[C@H]4O)ncc3Cl)c(C)c2c1=O [Compound 230, 5-ethyl-2-(5-chloro-2-(((1S,3R,4S,5R)-4-hydroxy-6,8-dioxabicyclo[3.2.1]octan-3-yl)amino)pyrimidin-4-yl)-7-isopropyl-3-methylthieno[3,2-c]pyridin-4(5H)-one] | ≤ 40 | 120 to 450 | 
CC(C)n1c(N2C(=O)OC[C@@H]2C)nc2c(F)cc(-c3nc(N[C@@H]4C[C@H]5CO[C@H](O5)[C@H]4O)ncc3Cl)cc21 [Compound 298, (S)-3-(6-(5-chloro-2-(((1S,3R,4S,5R)-4-hydroxy-6,8-dioxabicyclo[3.2.1]octan-3-yl)amino)pyrimidin-4-yl)-4-fluoro-1-isopropyl-1H-benzo[d]imidazol-2-yl)-4-methyloxazolidin-2-one] | 150 to 1000 | 450 to 3000 | 
CC(C)n1c(CN2CC[C@@H](F)C2)c(F)c(=O)c2ccc(-c3nc(N[C@@H]4C[C@H]5CO[C@H](O5)[C@H]4O)ncc3F)cc21 [Compound 202, 3-fluoro-7-(5-fluoro-2-(((1S,3R,4S,5R)-4-hydroxy-6,8-dioxabicyclo[3.2.1]octan-3-yl)amino)pyrimidin-4-yl)-2-(((R)-3-fluoropyrrolidin-1-yl)methyl)-1-isopropylquinolin-4(1H)-one] | 150 to 1000 | 450 to 3000 | 
CC(C)n1c([C@@H]2CCOC2)nc2c(F)cc(-c3nc(N[C@@H]4C[C@H]5CO[C@H](O5)[C@H]4O)ncc3F)cc21 [Compound 270, (1S,3R,4S,5R)-3-((5-fluoro-4-(4-fluoro-1-isopropyl-2-((S)-tetrahydrofuran-3-yl)-1H-benzo[d]imidazol-6-yl)pyrimidin-2-yl)amino)-6,8-dioxabicyclo[3.2.1]octan-4-ol] | 40 to 150 | 120 to 450 | 
CC(C)n1c([C@H]2CCOC2)nc2c(F)cc(-c3nc(N[C@@H]4C[C@H]5CO[C@H](O5)[C@H]4O)ncc3F)cc21 [Compound 269, (1S,3R,4S,5R)-3-((5-fluoro-4-(4-fluoro-1-isopropyl-2-((R)-tetrahydrofuran-3-yl)-1H-benzo[d]imidazol-6-yl)pyrimidin-2-yl)amino)-6,8-dioxabicyclo[3.2.1]octan-4-ol] | 40 to 150 | 120 to 450 | 
CC(C)n1c([C@@H]2CCOC2)nc2c(F)cc(-c3nc(N[C@@H]4C[C@H]5CO[C@H](O5)[C@H]4O)ncc3Cl)cc21 [Compound 268, (1S,3R,4S,5R)-3-((5-chloro-4-(4-fluoro-1-isopropyl-2-((S)-tetrahydrofuran-3-yl)-1H-benzo[d]imidazol-6-yl)pyrimidin-2-yl)amino)-6,8-dioxabicyclo[3.2.1]octan-4-ol] | ≤ 40 | ≤ 120 | 
Cc1c(CN2CCC2)n(C(C)C)c2cc(-c3nc(N[C@@H]4C[C@H]5CO[C@H](O5)[C@H]4O)ncc3F)ccc2c1=O [Compound 196, 2-(azetidin-1-ylmethyl)-7-(5-fluoro-2-(((1S,3R,4S,5R)-4-hydroxy-6,8-dioxabicyclo[3.2.1]octan-3-yl)amino)pyrimidin-4-yl)-1-isopropyl-3-methylquinolin-4(1H)-one] | 40 to 150 | 120 to 450 | 
CC(C)n1c(C(C)(C)O)nc2c(F)cc(-c3nc(N[C@@H]4CCOC[C@H]4O)ncc3Cl)cc21 [Reference Compound, PF-07220060, reference compound] |  |  | IC50 ([1]; 24 h incubation, read-out: MCF7, pRb (Ser807/811), IC50): 65.2 nM; GI50 (22RV1 cells; read-out: 22RVI, GI50): 153 nM
CC(C)n1c(C(C)(C)O)nc2c(F)cc(-c3nc(N[C@@H]4C[C@H]5CO[C@H](O5)[C@H]4O)ncc3Cl)cc21 [Compound 1, (1S,3R,4S,5R)-3-((5-chloro-4-(4-fluoro-2-(2-hydroxypropan-2-yl)-1-isopropyl-1H-benzo[d]imidazol-6-yl)pyrimidin-2-yl)amino)-6,8-dioxabicyclo[3.2.1]octan-4-ol] | 40 to 150 | ≤ 120 | IC50 ([1]; Homo sapiens, MCF7, 24 h, 24 h incubation, read-out: MCF7, pRb (Ser807/811), IC50): 40.4 nM; Potency in p-Rb inhibition compared with the reference compound ([1]; versus PF-07220060): higher potency; GI50 (22RV1 cells; Homo sapiens, 22Rv1, 120 h, read-out: 22RVI, GI50): 144 nM; Potency in 22RV1 cell growth inhibition compared with the reference compound (22RV1 cells; versus PF-07220060): slightly higher potency
CC(C)n1c(CN2[C@@H](C)COC[C@@H]2C)c(C(F)F)c(=O)c2ccc(-c3nc(N[C@@H]4C[C@H]5CO[C@H](O5)[C@H]4O)ncc3Cl)cc21 [Compound 204, 7-(5-chloro-2-(((1S,3R,4S,5R)-4-hydroxy-6,8-dioxabicyclo[3.2.1]octan-3-yl)amino)pyrimidin-4-yl)-3-(difluoromethyl)-2-(((3S,5S)-3,5-dimethylmorpholino)methyl)-1-isopropylquinolin-4(1H)-one] | 40 to 150 | 120 to 450 | 
CC(C)n1c([C@@H]2CC2(F)F)nc2c(F)cc(-c3nc(N[C@@H]4C[C@H]5CO[C@H](O5)[C@H]4O)ncc3Cl)cc21 [Compound 216, (1S,3R,4S,5R)-3-((5-chloro-4-(2-((S)-2,2-difluorocyclopropyl)-4-fluoro-1-isopropyl-1H-benzo[d]imidazol-6-yl)pyrimidin-2-yl)amino)-6,8-dioxabicyclo[3.2.1]octan-4-ol] | ≤ 40 | ≤ 120 | 
CC(C)(O)c1cnc2c(F)cc(-c3nc(N[C@@H]4C[C@H]5CO[C@H](O5)[C@H]4O)ncc3Cl)cc2c1Cl [Compound 252, (1S,3R,4S,5R)-3-((5-chloro-4-(4-chloro-8-fluoro-3-(2-hydroxypropan-2-yl)quinolin-6-yl)pyrimidin-2-yl)amino)-6,8-dioxabicyclo[3.2.1]octan-4-ol] | ≤ 40 | ≤ 120 | 
COC(=O)N1CC[C@@H](c2nc3c(F)cc(-c4nc(N[C@@H]5C[C@H]6CO[C@H](O6)[C@H]5O)ncc4F)cc3n2C(C)C)C1 [Compound 265, methyl (R)-3-(4-fluoro-6-(5-fluoro-2-(((1S,3R,4S,5R)-4-hydroxy-6,8-dioxabicyclo[3.2.1]octan-3-yl)amino)pyrimidin-4-yl)-1-isopropyl-1H-benzo[d]imidazol-2-yl)pyrrolidine-1-carboxylate] | 40 to 150 | 120 to 450 | 
